Source: patent publication US4883815A, “Hydrocinnamic acid derivatives” (Hoffmann-La Roche Inc., priority 1987, dated 1989)

Assay: acute toxicity, single oral administration
Settings: mouse, in vivo, po
Text: Moreover, the Table contains data for the acute toxicity (LD50 in mg/kg in the case of single oral administration to mice).

Row | SMILES | LD50 [mg/kg]
1 | CC(=O)NCCCC(=O)c1ccc(Cl)cc1CCC(N)=O [Example 19, 2-(4-acetamidobutyryl)-5-chlorohydrocinnamide] | > 4000
2 | CCCCCCCOC(=O)CCc1cc(Cl)ccc1C(=O)CCCNC(C)=O [H H Cl H H O(CH2)6CH3 CH3 H H Oxo] | > 5000

Same assay, conditions: mouse, in vivo; acute toxicity, single oral administration to mice

Row | SMILES | LD50 [mg/kg]
3 | CCOC(=O)CCc1cc(Cl)ccc1C(=O)CCCNC(C)=O [Example 2, ethyl 2-(4-acetamidobutyryl)-5-chloro-hydrocinnamate] | > 5000
4 | CCCOC(=O)CCc1cc(Cl)ccc1C(=O)CCCNC(C)=O [Example 3, propyl 2-(4-acetamidobutyryl)-5-chlorohydrocinnamate] | > 5000
5 | CC(=O)NCCCC(=O)c1ccc(Cl)cc1CCC(=O)OC(C)C [Example 4, isopropyl 2-(4-acetamidobutyryl)-5-chlorohydrocinnamate] | > 4000
6 | CCOC(=O)CCc1cc(Cl)ccc1C(=O)CCCNC(=O)CCCNC(C)=O [Example 8, ethyl 2-[4-(4-acetamidobutyramido)butyryl]-5-chlorohydrocinnamate] | > 5000
7 | CCOC(=O)CC[C@H](NC(=O)CCc1cc(Cl)ccc1C(=O)CCCNC(C)=O)C(=O)OCC [Example 29, diethyl N-[2-(4-acetamidobutyryl)-5-chlorohydrocinnamoyl]-L-glutamate] | > 5000
8 | CCOC(=O)CNC(=O)CCc1cc(Cl)ccc1C(=O)CCCNC(C)=O [Example 30, ethyl N-[2-(4-acetamidobutyryl)-5-chlorohydrocinnamoyl]-glycinate] | > 5000
